# Test results from ChEMBL document CHEMBL5154808, “Novel β-Hairpin Antimicrobial Peptides Containing the β-Turn Sequence of -RRRF- Having High Cell Selectivity and Low Incidence of Drug Resistance” (J Med Chem, 2022).
# Calls of active or inactive are those of the source. The rule behind the calls is not given here.
# What was measured:
# [1] = tested on: Staphylococcus aureus; assay: Bactericidal activity against Staphylococcus aureus ATCC 25923 assessed as time required to kill bacteria at 2 times MIC by time-killing assay; format: functional
# [2] = tested on: Enterococcus faecalis; assay: Antimicrobial activity against Enterococcus faecalis ATCC 29212 assessed as reduction of bacterial growth incubated for 18 hrs by CLSI protocol based broth microdilution method; format: functional
# [3] = tested on: Staphylococcus aureus; assay: Antibacterial activity against Staphylococcus aureus ATCC 25923 infected BALB/c mouse assessed as reduction in hepatic inflammatory cell infiltration at 5 to 10 mg/kg, ip measured after 24 hrs by hematoxylin and eosin staining based assay; format: functional, organism-based; settings: dose 5-10 mg/kg
# [4] = tested on: Cell membrane; assay: Induction of outer membrane permeabilization in Pseudomonas aeruginosa ATCC 27853 by NPN fluorescent dye based assay; format: subcellular; settings: DDE = dose-dependent effect
# [5] = tested on: Cell membrane; assay: Induction of cytoplasmic membrane depolarization in […] assessed as increase in fluorescence intensity at 1 to 4 times MIC measured after 1 min by DiSC3-5 dye based fluorescence method; format: subcellular
# [6] = tested on: Staphylococcus aureus; assay: Antibacterial activity against Staphylococcus aureus ATCC 25923 infected in BALB/c mouse assessed as reduction in bacterial load in lung at 5 to 10 mg/kg, ip measured after 4 to 12 hrs (reference value: 5.6 x 10^6 CFU/g); format: functional; settings: dose 5-10 mg/kg, time 4-12 hrs
# [7] = tested on: Staphylococcus aureus; assay: Antimicrobial activity against Staphylococcus aureus ATCC 25923 assessed as fold change in MICincubated for 18 hrs in presence of 150 mM NaCl by CLSI protocol based broth microdilution method relative to control; format: functional
# [8] = tested on: Escherichia coli; assay: Antimicrobial activity against Escherichia coli ATCC 25922 assessed as fold change in MIC incubated for 18 hrs in presence of 10% serum by CLSI protocol based broth microdilution method relative to control; format: functional
# [9] = tested on: Erythrocyte; assay: Hemolytic activity in mouse red blood cells assessed as release of hemoglobin incubated for 1 hr by microplate reader method; format: toxicity, cell-based
# [10] = tested on: Escherichia coli; assay: Antimicrobial activity against Escherichia coli ATCC 25922 assessed as fold change in MIC incubated for 18 hrs in presence of 1 mM MgCl2 by CLSI protocol based broth microdilution method relative to control; format: functional
# [11] = tested on: Escherichia coli; assay: Synergistic antibacterial activity against meropenem-resistant Escherichia coli ATCC 25922 assessed as fractional inhibitory concentration index incubated for 18 hrs in presence of meropenem by checker board assay; format: functional
# [12] = tested on: Staphylococcus aureus; assay: Antimicrobial activity against rifampicin-resistant Staphylococcus aureus ATCC 25923; format: functional
# [13] = tested on: Escherichia coli; assay: Synergistic antibacterial activity against Escherichia coli ATCC 25922 assessed as fractional inhibitory concentration index incubated for 18 hrs in presence of rifampicin by checker board assay; format: functional
# [14] = tested on: Staphylococcus aureus; assay: Synergistic antibacterial activity against kanamycin-resisitant Staphylococcus aureus ATCC 25923 assessed as fractional inhibitory concentration index incubated for 18 hrs in presence of kanamycin by checker board assay; format: functional
# [15] = tested on: Bacillus subtilis; assay: Antimicrobial activity against Bacillus subtilis ATCC 23857 assessed as reduction of bacterial growth incubated for 18 hrs by CLSI protocol based broth microdilution method; format: functional
# [16] = tested on: Pseudomonas aeruginosa; assay: Antimicrobial activity against Pseudomonas aeruginosa ATCC 27853 assessed as reduction of bacterial growth incubated for 18 hrs by CLSI protocol based broth microdilution method; format: functional
# [17] = tested on: Staphylococcus aureus; assay: Antimicrobial activity against Staphylococcus aureus ATCC 25923 assessed as assessed as fold change in MIC incubated for 18 hrs in presence of 4 uM FeCl3 by CLSI protocol based broth microdilution method relative to control; format: functional
# [18] = tested on: Escherichia coli; assay: Antimicrobial activity against Escherichia coli ATCC 25922 assessed as reduction of bacterial growth at 2 times MIC incubated for 18 hrs in presence of chymotrypsin by CLSI protocol based broth microdilution method; format: functional, organism-based
# [19] = tested on: Staphylococcus aureus; assay: Antibacterial activity against Staphylococcus aureus ATCC 25923 infected BALB/c mouse assessed as reduction in alveolar constriction at 5 to 10 mg/kg, ip measured after 24 hrs by hematoxylin and eosin staining based assay; format: functional, organism-based; settings: dose 5-10 mg/kg
# [20] = tested on: Escherichia coli; assay: Antimicrobial activity against Escherichia coli ATCC 25922 assessed as fold change in MIC incubated for 18 hrs in presence of 150 mM NaCl by CLSI protocol based broth microdilution method relative to control; format: functional
# [21] = Stability in mouse serum assessed as drug degradation by measuring retention time at 10 mM measured upto 360 mins by RP-HPLC analysis; format: ADME, cell-free; settings: 6 h, 10000 µM
# [22] = tested on: Staphylococcus aureus; assay: Antimicrobial activity against Staphylococcus aureus ATCC 25923 assessed as reduction of bacterial growth incubated for 18 hrs by CLSI protocol based broth microdilution method; format: functional
# [23] = Acute toxicity in ip dosed Kunming mouse assessed as lethal dose; format: organism-based; settings: in vivo
# [24] = tested on: Staphylococcus aureus; assay: Antimicrobial activity against Staphylococcus aureus ATCC 25923 assessed as fold change in MIC incubated for 18 hrs in presence of 1 mM MgCl2 by CLSI protocol based broth microdilution method relative to control; format: functional
# [25] = tested on: Cell membrane; assay: Induction of cytoplasmic membrane depolarization in Staphylococcus aureus ATCC 25923 assessed as increase in fluorescence intensity at 1 to 4 times MIC measured after 1 min by DiSC3-5 dye based fluorescence method; format: subcellular; settings: DDE = dose-dependent effect
# [26] = tested on: Staphylococcus aureus; assay: Antimicrobial activity against kanamycin-resistant Staphylococcus aureus ATCC 25923; format: functional
# [27] = tested on: Staphylococcus epidermidis; assay: Antimicrobial activity against Staphylococcus epidermidis ATCC 12228 assessed as reduction of bacterial growth incubated for 18 hrs by CLSI protocol based broth microdilution method; format: functional
# [28] = tested on: Escherichia coli; assay: Antimicrobial activity against Escherichia coli ATCC 25922 assessed as cell membrane breakage measured after 30 mins by SEM analysis; format: functional, organism-based
# [29] = tested on: Staphylococcus aureus; assay: Antimicrobial activity against Staphylococcus aureus ATCC 25923 assessed as fold change in MIC incubated for 18 hrs in presence of 10% serum by CLSI protocol based broth microdilution method relative to control; format: functional
# [30] = tested on: Cell membrane; assay: Induction of cytoplasmic membrane depolarization in Pseudomonas aeruginosa ATCC 27853 assessed as increase in fluorescence intensity at 1 to 4 times MIC measured after 1 min by DiSC3-5 dye based fluorescence method; format: subcellular
# [31] = tested on: Escherichia coli; assay: Antimicrobial activity against rifampicin-resistant Escherichia coli ATCC 25922; format: functional
# [32] = tested on: Staphylococcus aureus; assay: Antimicrobial activity against Staphylococcus aureus ATCC 25923 assessed as reduction of bacterial growth at 2 times MIC incubated for 18 hrs in presence of chymotrypsin by CLSI protocol based broth microdilution method; format: functional, organism-based
# [33] = tested on: Staphylococcus aureus; assay: Antimicrobial activity against Staphylococcus aureus ATCC 25923 assessed as fold change in MIC incubated for 18 hrs in presence of 4.5 mM KCl by CLSI protocol based broth microdilution method relative to control; format: functional
# [34] = tested on: Escherichia coli; assay: Antimicrobial activity against Escherichia coli ATCC 25922 assessed as reduction of bacterial growth incubated for 18 hrs by CLSI protocol based broth microdilution method; format: functional
# [35] = tested on: Escherichia coli; assay: Antimicrobial activity against Escherichia coli ATCC 25922 assessed as fold change in MIC incubated for 18 hrs in presence of 4.5 mM KCl by CLSI protocol based broth microdilution method relative to control; format: functional
# [36] = tested on: Staphylococcus aureus; assay: Antimicrobial activity against Staphylococcus aureus ATCC 25923 assessed as disruption of biofilm formation measured after 2 hrs by SEM analysis; format: functional, organism-based
substance,measurement,setting,value
H-KWKWKRRRFKWKWK-NH2,Time,[1],90 min
same,MIC,[2],16 µM
same,Activity,[3],Active
same,Activity,[4],Dde
same,Activity,[5],Active
same,Activity,[6],0 CFU/g
same,fold change (FC),[7],2
same,fold change (FC),[8],1
same,HC10,[9],> 256 µM
same,fold change (FC),[10],1
same,fractional inhibitory concentration index (FICI),[11],1.25
same,MIC,[12],4 µM
same,fractional inhibitory concentration index (FICI),[13],0.625
same,fractional inhibitory concentration index (FICI),[14],0.5
same,MIC,[15],4 µM
same,MIC,[16],4 µM
same,fold change (FC),[17],1
same,Activity,[18],Active
same,Activity,[19],Active
same,fold change (FC),[20],1
same,Retention_time,[21],11.505 min
same,MIC,[22],8 µM
same,LD50,[23],62.2 mg/kg
same,fold change (FC),[24],1
same,Activity,[25],Dde
same,MIC,[26],4 µM
same,MIC,[27],4 µM
same,Activity,[28],Active
same,fold change (FC),[29],2
same,Activity,[30],Active
same,MIC,[31],4 µM
same,Activity,[32],Active
same,fold change (FC),[33],1
same,MIC,[34],8 µM
same,fold change (FC),[35],1
same,Activity,[36],Active
H-RIRIRRRRFRIRIR-NH2,Time,[1],30 min
same,MIC,[2],8 µM
same,Activity,[3],Active
same,Activity,[4],Dde
same,Activity,[5],Active
same,Activity,[6],0 CFU/g
same,fold change (FC),[7],2
same,fold change (FC),[8],1
same,HC10,[9],> 256 µM
same,fold change (FC),[10],1
same,fractional inhibitory concentration index (FICI),[11],0.75
same,MIC,[12],4 µM
same,fractional inhibitory concentration index (FICI),[13],1
same,fractional inhibitory concentration index (FICI),[14],0.5625
same,MIC,[15],2 µM
same,MIC,[16],4 µM
same,fold change (FC),[17],1
same,Activity,[18],Active
same,Activity,[19],Active
same,fold change (FC),[20],4
same,Retention_time,[21],10.623 min
same,MIC,[22],4 µM
same,LD50,[23],77.1 mg/kg
same,fold change (FC),[24],2
same,Activity,[25],Dde
same,MIC,[26],4 µM
same,MIC,[27],4 µM
same,Activity,[28],Active
same,fold change (FC),[29],2
same,Activity,[30],Active
same,MIC,[31],4 µM
same,Activity,[32],Active
same,fold change (FC),[33],1
same,MIC,[34],4 µM
same,fold change (FC),[35],2
same,Activity,[36],Active
